Legend:
[1] = system: Jurkat cells; experiment: Cell Titer-Glo cell viability assay, Jurkat; type: cell-based; settings: Homo sapiens, 72 h, mean of three experiments, NA = IC50 > maximal concentration used
Procedure, shortened: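 Jurkat was grown in RPMI-1640 and Molm14 in MEMα, both with 10% FBS. Viability was read by CellTiter-Glo luminescence, and EC50 was obtained by non-linear regression of dose-response curves.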

[2] = biological target: T1, Brd2(BD1) (Homo sapiens, UniProt P25440); experiment: HTRF BET selectivity profile, Brd2(BD1); type: binding
T1 construct: GST tagged bromodomain proteins were purchased from BPS Bioscience; purchased BPS Bioscience

[3] = biological target: Brd3(BD1) (Homo sapiens, UniProt Q15059); experiment: HTRF BET selectivity profile, Brd3(BD1); type: binding; set-up: GST tagged bromodomain proteins were purchased from BPS Bioscience; purchased BPS Bioscience
[4] = biological target: T2, Brd2(BD2) (Homo sapiens, UniProt P25440); experiment: HTRF BET selectivity profile, Brd2(BD2); type: binding; settings: read-out: Brd2(BD2) IC50
T2 construct: GST tagged bromodomain proteins were purchased from BPS Bioscience; purchased BPS Bioscience

[5] = biological target: T3, BRD4(BD1) (Homo sapiens, UniProt O60885); experiment: HTRF assay, BRD4(BD1)/histone peptide interaction; type: binding; set-up: made in house
[6] = biological target: T3, BRD4(BD1); experiment: Thermal shift assay (BromoMELT), Brd4 (BD1); type: binding; settings: compound at 25 μM, cut-off +/−3.5° C.
Experimental: FIG. 3. Thermal Shift Assay (TSA) of 43c. The evaluation was performed on 61 bromodomains. A cut-off at +/−3.5° C. was set.
TSA “Bromoscan” assays (Reaction Biology) were performed in 384 well RT-PCR plate (BioRad) with a total working volume of 15 μL. The “BromoMelT™, containing the 61 GST- or His-tagged-bromodomains, SYPRO® Orange and a mix compounds as control, was purchased from Reaction Biology. For each point, 3 μL of protein (1×) and 12 μL master mix (buffer+SYPRO® Orange+compound at 25 μM or control mix compounds or DMSO (0.5%)) were mixed in plate. The plate was placed in a CFX384 RTQPC (BioRad), and heated 10 seconds at 25° C., then the temperature was increased from 25° C. to 90° C., by increment of 0.5° C. every 30 seconds. The fluorescence was recorded using FRET filters.

[7] = biological target: T4, Brd3(BD2) (Homo sapiens, UniProt Q15059); experiment: HTRF BET selectivity profile, Brd3(BD2); type: binding
T4 construct: GST tagged bromodomain proteins were purchased from BPS Bioscience; purchased BPS Bioscience
Procedure, shortened: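 HTRF peptide-displacement assay with GST-tagged bromodomains and histone peptide, 0.5% final DMSO, incubated 3 h, 6 h or overnight at room temperature or 4 °C depending on bromodomain. 665/620 nm ratio read; inhibition scaled between DMSO and no-peptide controls, IC50 in triplicate.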

[8] = biological target: T3, BRD4(BD1); experiment: BROMOscan assays; type: binding
[9] = system: c-Myc; experiment: c-Myc HTRF, Jurkat cell line; type: cell-based, human
Experimental: For additional evaluation of the effect of 43c in cell assays, an influence of the molecule on c-Myc expression was determined by c-Myc HTRF. c-Myc is a proto-oncogene that is often overexpressed in cancer. This leads to the increased expression of many genes, involved in cell proliferation, contributing to cancer development. Downregulation of c-Myc is considered as a promising approach for anticancer treatment.

Brd3(BD1), sequence (Q15059 34-140 limits assumed): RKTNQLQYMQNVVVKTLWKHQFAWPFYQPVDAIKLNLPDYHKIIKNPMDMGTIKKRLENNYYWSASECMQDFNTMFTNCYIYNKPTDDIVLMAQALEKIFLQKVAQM
T1 sequence (P25440 74-180 limits assumed): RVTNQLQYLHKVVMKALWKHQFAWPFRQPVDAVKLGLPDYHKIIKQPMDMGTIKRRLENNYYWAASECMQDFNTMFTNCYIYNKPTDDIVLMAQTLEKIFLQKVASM
T4 sequence (Q15059 306-415 limits assumed): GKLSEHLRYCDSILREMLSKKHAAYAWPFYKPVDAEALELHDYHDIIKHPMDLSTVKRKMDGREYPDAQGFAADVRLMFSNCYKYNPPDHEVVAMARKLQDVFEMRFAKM
T2 sequence (P25440 344-453 limits assumed): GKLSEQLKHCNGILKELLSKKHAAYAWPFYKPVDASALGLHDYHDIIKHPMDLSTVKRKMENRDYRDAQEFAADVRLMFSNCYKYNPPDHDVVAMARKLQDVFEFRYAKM

With CCn1cnc2c1c(=O)[nH]c(=O)n2Cc1ccc(CNS(=O)(=O)c2ccc(OC3CCOCC3)c(F)c2)cc1 [Compound 43c] the IC50 [1] was 17.6 µM, the IC50 ([2]; read-out: Brd2(BD1) IC50) was 183 nM and the “Ratio 2-1 vs 2-2” value ([2]; selectivity Brd2(BD1) vs Brd2(BD2), HTRF IC50) was 7. For the same compound, the IC50 [3] was 132 nM, the “Ratio 3-1 vs 3-2” value ([3]; selectivity Brd3(BD1) vs Brd3(BD2), HTRF IC50) was 16 and the IC50 [4] was 1220 nM. The IC50 ([5]; HTRF, mean of three experiments, NA = IC50 > 50 μM, read-out: Brd4(8D1) IC50) was 74 nM, the “Ratio 4-1 vs 4-2” value ([5]; selectivity Brd4(BD1) vs Brd4(BD2), HTRF IC50) was 31 and the ΔTm at 25 µM [6] was 5.25 °C. The IC50 [7] was 2170 nM, the Kd [8] was 32 nM and the “selectivity ratio to the first bromodomain, BROMOscan” value [8] was “up to 313 fold”. For the same compound, the “concentration at which c-Myc is downregulated, Jurkat” value [9] was 2.4 µM.

Source: patent US11180510B2, “Xanthine derivatives and uses thereof as inhibitors of bromodomains of BET proteins” (Centre national de la recherche scientifique, priority 2017, dated 2021)
